US20060079453A1, “Hla binding peptides and their uses” (priority 2002, published 2006)
Read-outs that look alike come from different tables or passages of the source. No end group written: not given here.

What was measured:
Test in all cases: biochemical
Format in all cases: binding
[1] = target: HLA-A*0301 (Homo sapiens, UniProt P04439)
[2] = target: HLA-A*1101 (Homo sapiens, UniProt P04439, A114D/D185E/E176A/F33Y/L180Q/S129P/T187R)
[3] = target: HLA-A*3101 (Homo sapiens, UniProt P04439, A270S/D185E/E176V/E277Q/F33T/G231S/G80R/H175R/I121M/I218V/I322F/K168Q/L300P/L318F/M331R/P217A/Q94H/R138Q/T323A/T345S/T97I/V358M)
[4] = target: HLA-A*3301 (Homo sapiens, UniProt P04439, A270S/D185E/E176V/E277Q/E87N/F33T/G231S/H175R/I121M/I218V/I322F/K168Q/K210R/L300P/L318F/M331R/P217A/Q86R/Q94H/R138Q/T323A/T345S/T97I/V358M/Y195H)
[5] = target: HLA-A*6801 (Homo sapiens, UniProt P04439, A269V/D185E/E176V/E277Q/E87N/F33Y/G231S/I121M/I166T/I218V/L180W/L300P/L318F/N151K/P208A/P217A/Q86R/R169H/T345S)
[6] = target: HLA-DR DRB1*0301 (DR3) (Homo sapiens, UniProt P01903+P01911, A100K/A102G/A103R/A169T/F55Y/I96L/K41T/L162R/M171V/P40S/Q125H/Q178H/Q39Y/R42S/S66N/T106N/T262R/W38E/Y61H)
Sequence of HLA-DR DRB1*0301 (DR3) (P01903 26-254 limits assumed, other chains not shown): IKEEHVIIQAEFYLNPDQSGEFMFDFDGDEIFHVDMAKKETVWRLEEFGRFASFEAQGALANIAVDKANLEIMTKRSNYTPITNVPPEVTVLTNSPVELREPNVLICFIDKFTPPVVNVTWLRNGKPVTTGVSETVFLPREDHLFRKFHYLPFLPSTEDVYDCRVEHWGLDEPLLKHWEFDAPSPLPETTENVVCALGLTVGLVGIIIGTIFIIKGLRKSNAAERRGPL

[7] = target: HLA-DR DRB1*0401 (DR4) (Homo sapiens, UniProt P01903+P01911, A100K/A169T/F76Y/I96L/K127E/L162R/M171V/N62H/P40V/Q125Y/R42H/S133A/S149N/S66Y/V115G/V209L/W38E)
[8] = target: HLA-DR DRB1*0405 (DR4) (Homo sapiens, UniProt P01903+P01911, A100R/A169T/D86S/F76Y/I96L/K127E/L162R/M171V/N62H/P40V/Q125Y/R42H/S133A/S149N/S66Y/V115G/V209L/W38E)
[9] = target: HLA-DR DRB1*0701 (DR7) (Homo sapiens, UniProt P01903+P01911, A100R/A102G/A103Q/D57E/D86V/E43K/F76Y/K127E/L162R/M171V/P40G/Q125H/Q99D/R33Q/R42Y/R54Q/S133A/S66F/T210M/V115G/Y107V/Y59L/Y89S)
[10] = target: HLA-DR DRB1*0101 (DR1) (Homo sapiens, UniProt P01903+P01911, A100R/D57E/F55L/F60I/F76Y/I96L/L162R/M171V/P40L/Q125E/R42F/V115G/Y59C); conditions: DRB1 *0101
[11] = target: HLA-DR DRB1*1101 (DR11) (Homo sapiens, UniProt P01903+P01911, A100R/A169T/A87E/I96F/K41T/L162R/M171V/P40S/Q125H/Q178H/Q39Y/Q99D/R42S/S66Y/T262R/V115G/W38E); conditions: DRB1 *1101
Sequence of HLA-DR DRB1*1101 (DR11) (P01903 26-254 limits assumed, other chains not shown): as above

[12] = target: HLA-DR DRB1*1302 (DR13) (Homo sapiens, UniProt P01903+P01911, A100E/A169T/K41T/L162R/M171V/P40S/Q125H/Q178H/Q39Y/Q99D/R42S/S66N/T262R/V115G/W38E/Y61H); conditions: DRBI *1302
Sequence of HLA-DR DRB1*1302 (DR13) (P01903 26-254 limits assumed, other chains not shown): as above

[13] = target: HLA-DR DRB1*1501 (DR15) (Homo sapiens, UniProt P01903+P01911); conditions: DRBI *1501
[14] = target: HLA-DR DRB4*0101 (DR53) (Homo sapiens, UniProt P01903+P13762, G164S); conditions: DRB4 *0101
[15] = target: HLA-DR DRB5*0101 (DR51) (Homo sapiens, UniProt P01903+Q30154); conditions: DRB5 *0101

Sequence of HLA-A*1101 (P04439 25-365 limits assumed, stated change not applied): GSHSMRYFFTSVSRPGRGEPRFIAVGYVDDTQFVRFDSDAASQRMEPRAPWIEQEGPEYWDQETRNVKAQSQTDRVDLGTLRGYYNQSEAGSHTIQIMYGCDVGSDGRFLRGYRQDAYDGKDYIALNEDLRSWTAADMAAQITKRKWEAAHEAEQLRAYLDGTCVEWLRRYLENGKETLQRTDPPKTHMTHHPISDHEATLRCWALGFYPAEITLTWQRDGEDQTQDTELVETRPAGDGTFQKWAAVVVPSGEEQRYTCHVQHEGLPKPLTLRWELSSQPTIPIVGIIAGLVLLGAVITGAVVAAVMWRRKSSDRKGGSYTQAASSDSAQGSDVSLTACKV

## VSIRVGGQIK
[1]
  IC50: 642 nM
[2]
  IC50: 91 nM
[3]
  IC50: 50700 nM
[4]
  IC50: > 61700 nM
[5]
  IC50: 1960 nM

## VSIRVGGQTK
[1]
  IC50: 341 nM
[2]
  IC50: 21 nM
[3]
  IC50: 29900 nM
[4]
  IC50: 39000 nM
[5]
  IC50: 290 nM

## VTIKIEGQLK
[1]
  IC50: 361 nM
[2]
  IC50: 69 nM
[3]
  IC50: 5080 nM
[4]
  IC50: 58000 nM
[5]
  IC50: 27 nM

## VTIKVGGQLK
[1]
  IC50: 188 nM
[2]
  IC50: 59 nM
[3]
  IC50: 6060 nM
[4]
  IC50: 47600 nM
[5]
  IC50: 127 nM

## VTIRIGGQLK
[1]
  IC50: 51 nM
[2]
  IC50: 14 nM
[3]
  IC50: 4460 nM
[4]
  IC50: 65800 nM
[5]
  IC50: 25 nM

## VTIRVGGQLK
[1]
  IC50: 43 nM
[2]
  IC50: 13 nM
[3]
  IC50: 3590 nM
[4]
  IC50: 86100 nM
[5]
  IC50: 28 nM

## VTLDIQSTK
[1]
  IC50: 78 nM
[2]
  IC50: 13 nM
[3]
  IC50: 2050 nM
[4]
  IC50: 1950 nM
[5]
  IC50: 237 nM

## VTVRIGGMQK
[1]
  IC50: 54 nM
[2]
  IC50: 13 nM
[3]
  IC50: 2580 nM
[4]
  IC50: 44400 nM
[5]
  IC50: 155 nM

## VTVRVGGQLK
[1]
  IC50: 216 nM
[2]
  IC50: 19 nM
[3]
  IC50: 8240 nM
[4]
  IC50: > 72300 nM
[5]
  IC50: 141 nM

## VTVYGPGPGWK
[1]
  IC50: 1150 nM
[2]
  IC50: 18 nM
[3]
  IC50: > 9000 nM
[4]
  IC50: > 103000 nM
[5]
  IC50: 206 nM

## VTVYYGPGPGK
[1]
  IC50: 310 nM
[2]
  IC50: 24 nM
[3]
  IC50: 9720 nM
[4]
  IC50: 102000 nM
[5]
  IC50: 30 nM

## YDFVFADLRIVYRNG
[6]; read-out: DRB1 *0301
  IC50: 13 nM
[7]; read-out: DRB1 *0401
  IC50: 1910 nM
[8]; read-out: DRB1 *0405
  IC50: 829 nM
[9]; read-out: DRB1 *0701
  IC50: 21400 nM

## YKFLFTDLRIVYRDN
[10]
  IC50: 109 nM
[6]
  IC50: 8.8 nM
[8]; DRB1 *0405
  IC50: 91 nM
[9]; DRB1 *0701
  IC50: 1520 nM
[11]
  IC50: 10100 nM
[12]
  IC50: 77 nM
[13]
  IC50: 2910 nM
[14]
  IC50: 1340 nM
[15]
  IC50: 800 nM

## YLAMPFATPMEAELARRSLA
[10]
  IC50: 46 nM
[6]
  IC50: 46600 nM
[7]; DRB1 *0401
  IC50: 266 nM
[8]; DRB1 *0405
  IC50: 405 nM
[12]
  IC50: 2810 nM
[13]
  IC50: 865 nM
[14]
  IC50: 1960 nM
[15]
  IC50: 641 nM

## YLFNQHIKK
[1]
  IC50: 14 nM
[2]
  IC50: 7.8 nM
[3]
  IC50: 4920 nM
[4]
  IC50: 7970 nM
[5]
  IC50: 14 nM

## YSVYGTTLER
[1]
  IC50: 430 nM
[2]
  IC50: 96 nM
[3]
  IC50: 2140 nM
[4]
  IC50: 6900 nM
[5]
  IC50: 19 nM

## YTFVFADLR
[1]
  IC50: 3630 nM
[2]
  IC50: 8.1 nM
[3]
  IC50: 20 nM
[4]
  IC50: 6.6 nM
[5]
  IC50: 2.9 nM
